Measured values published in patent US8198405B2, “Stabilized alpha helical peptides and uses thereof” (Dana-Farber Cancer Institute, Inc., priority 2003, dated 2012).
Where a SMILES comes first, the peptide text is derived from it. Bridges are numbered along the chain shown (N, C = ends). [ ]: non-standard residue; d: D form. S5 = C=CCCC[C@](C)(N)C(=O)O; Nle = CCCC[C@H](N)C(=O)O

Columns and labels:
[1] = system: purified mouse liver mitochondria; assay: Cytochrome c release assay (ELISA), wild-type mitochondria; type: biochemical; conditions: wild-type versus Bak-/- mitochondria
Experimental: In order to assess the biological activity of SAHB3BID compounds in vitro, cytochrome c release assays were performed using purified mouse liver mitochondria. Mitochondria (0.5 mg/mL) were incubated for 40 minutes with 1 μM and 100 nM of SAHB3BID compounds and then supernatants and mitochondrial fractions isolated and subjected to cytochrome c ELISA assay. Background cytochrome c release (10-15%) was subtracted from total release for each sample, and the percent actual cytochrome c release was determined (FIG. 12). […] In each case, except for the double cross-linked SAHB3BIDE (which may lack critical amino acids for biological activity or, in this case, be overly constrained by the dual cross-links), there is approximately a doubling of cytochrome c release in response to 1 μM SAHB3BID compounds compared to the unmodified peptide (FIG. 12a). […] BID mutants with defective BH3 domains can promote BAK-independent cytochrome c mobilization (Scorrano et al, Dev Cell, 2:55), and the highly hydrophobic BID helix 6 has been implicated in this activity (L. Scorrano, S. J. Korsmeyer, unpublished results).
Similar to the above experiment, mouse liver mitochondria from wild-type and Bak−/− mice were exposed to the compounds at various concentrations and assayed for cytochrome c release at 10 and 40 minute intervals. […] Thus, SAHB3BIDA and B display a 10-25 fold enhancement in cytochrome c release activity at the 40 minute time point.

BCL-2 = molecular target: T1, BCL-2 (Homo sapiens, UniProt P10415); assay: Fluorescence polarization direct binding assay; conditions: fluorescinated compounds 25 nM, GST-BCL2 25 nM-1000 nM (FIG. 11d)
T1 construct: containing the plasmid encoding C-terminal deleted GST-BCL-2; made in house; host or cells: Escherichia coli BL21 (DE3)
T1 sequence (P10415 1-218 limits assumed): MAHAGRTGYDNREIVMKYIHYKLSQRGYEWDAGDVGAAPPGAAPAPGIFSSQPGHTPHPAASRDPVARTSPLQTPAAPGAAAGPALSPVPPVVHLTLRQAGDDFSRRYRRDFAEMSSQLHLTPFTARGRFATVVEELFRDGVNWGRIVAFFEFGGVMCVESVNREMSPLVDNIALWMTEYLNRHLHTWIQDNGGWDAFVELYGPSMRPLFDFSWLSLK

BAX = molecular target: T2, BAX (Homo sapiens, UniProt Q07812); assay: Fluorescence polarization direct binding assay; conditions: full-length BAX
T2 construct: Full-length BAX protein was prepared as previously described (Suzuki et al, Cell, 103:645); made in house
T2 sequence (Q07812 whole entry): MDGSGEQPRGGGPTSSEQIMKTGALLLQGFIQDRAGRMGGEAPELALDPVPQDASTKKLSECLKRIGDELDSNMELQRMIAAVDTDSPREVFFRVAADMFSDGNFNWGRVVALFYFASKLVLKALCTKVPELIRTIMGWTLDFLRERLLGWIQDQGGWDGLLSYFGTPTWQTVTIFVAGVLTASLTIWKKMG

[2] = system: REH, MV4; 11, and SEMK2 cell lines; assay: Apoptosis induction assays; type: cell-based
Jurkat leukemia cells = assay: Apoptosis by annexin V flow cytometry; type: cell-based; conditions: 10 μM, 20 hours
Experimental: Indeed, the pro-apoptotic effect of 10 uM SAHB3BIDA and B on “wild-type” Jurkats was abolished in the BCL-2 overexpressing cells. […] The observed pro-apoptotic effects are selectively abolished by gly to glu mutation of SAHB3BIDA and cellular overexpression of BCL-2, findings which underscore that SAHB3BID compounds function via the defined mitochondrial apoptosis pathway.

CCCC[C@H](NC(=O)[C@]1(C)CCCC=CCCC[C@](C)(NC(=O)[C@H](C)NC(=O)[C@H](CC(C)C)NC(=O)[C@H](Cc2c[nH]cn2)NC(=O)[C@H](CCCNC(=N)N)NC(=O)[C@H](C)NC(=O)[C@@H](NC(=O)[C@H](CC(N)=O)NC(=O)[C@H](CCCNC(=N)N)NC(=O)[C@@H](NC(=O)[C@@H](NC(=O)[C@H](CC(=O)O)NC(=O)[C@H](CCC(=O)O)NC(C)=O)[C@@H](C)CC)[C@@H](C)CC)[C@@H](C)CC)C(=O)N[C@@H](C(C)C)C(=O)N[C@@H](CCC(=O)O)C(=O)N[C@@H](CC(=O)O)C(=O)N1)C(=O)N[C@@H](CC(=O)O)C(=O)N[C@@H](CCCNC(=N)N)C(=O)N[C@@H](CO)C(=O)N[C@H](C(=O)N[C@@H](Cc1c[nH]c2ccccc12)C(N)=O)[C@@H](C)CC [SAHB3BID(G→E)A] (Ac-EDIIRNIARHLA[S5]VED[S5][Nle]DRSIW-NH2; staple 13-17; N-terminus assumed)
Bak dependence of cytochrome c release, in words [1]: only Bak-independent cytochrome c release
Kd (BCL-2): 483 nM
BAX binding, in words (BAX): measurable binding
apoptosis induction, in words [2]: no effect
apoptosis induction, in words (Jurkat leukemia cells): no effect
